What was measured:
Assay in all cases: Histone peptide microarray
Assay type in all cases: binding, human
Settings in all cases: sheet "Array Heatmap"; GST-tagged reader; histone peptide array, total n = 4
[1] = test system: AIRE (PP)
Procedure, shortened: (§1)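 A peptide microarray holding 293 synthetic histone peptides with individual or combinatorial modifications was probed with each GST-PHD protein at 0.5 μM. Values represent mean intensity (±SD) from four replicates.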

[2] = test system: BAZ2B
Procedure, shortened: as §1

[3] = test system: BPTF (PB)
Procedure, shortened: as §1

[4] = test system: CHD4 (PPCC)
Procedure, shortened: as §1

[5] = test system: CHD5 (PCC)
Procedure, shortened: as §1

[6] = test system: CHD5 (PPCC)
Procedure, shortened: as §1

[7] = test system: DIDO1
Procedure, shortened: as §1

[8] = test system: DPF2 (PPC2W2)
Procedure, shortened: as §1

[9] = test system: ING1
Procedure, shortened: as §1

[10] = test system: ING2
Procedure, shortened: as §1

[11] = test system: ING3
Procedure, shortened: as §1

[12] = test system: ING4
Procedure, shortened: as §1

[13] = test system: ING5
Procedure, shortened: as §1

[14] = test system: KDM4C (TTP)
Procedure, shortened: as §1

[15] = test system: KDM5A (1)
Procedure, shortened: as §1

[16] = test system: KDM5A (3)
Procedure, shortened: as §1

[17] = test system: KDM5B (1)
Procedure, shortened: as §1

[18] = test system: KDM5B (3)
Procedure, shortened: as §1

[19] = test system: KDM7A
Procedure, shortened: as §1

[20] = test system: MLL5
Procedure, shortened: as §1

[21] = test system: MORC3 (CW)
Procedure, shortened: as §1

[22] = test system: PHF13
Procedure, shortened: as §1

[23] = test system: PHF21A
Procedure, shortened: as §1

[24] = test system: PHF23
Procedure, shortened: as §1

[25] = test system: PHF2
Procedure, shortened: as §1

[26] = test system: PHF8
Procedure, shortened: as §1

[27] = test system: PHRF1 (RP)
Procedure, shortened: as §1

[28] = test system: RAG2
Procedure, shortened: as §1

[29] = test system: SP140L
Procedure, shortened: as §1

[30] = test system: TAF3
Procedure, shortened: as §1

[31] = test system: TRIM66 (PB)
Procedure, shortened: as §1

Row | Substance | Array Heatmap signal, AIRE (PP) [1] | Array Heatmap signal, BAZ2B [2] | Array Heatmap signal, BPTF (PB) [3] | Array Heatmap signal, CHD4 (PPCC) [4] | Array Heatmap signal, CHD5 (PCC) [5] | Array Heatmap signal, CHD5 (PPCC) [6] | Array Heatmap signal, DIDO1 [7] | Array Heatmap signal, DPF2 (PPC2W2) [8] | Array Heatmap signal, ING1 [9] | Array Heatmap signal, ING2 [10] | Array Heatmap signal, ING3 [11] | Array Heatmap signal, ING4 [12] | Array Heatmap signal, ING5 [13] | Array Heatmap signal, KDM4C (TTP) [14] | Array Heatmap signal, KDM5A (1) [15] | Array Heatmap signal, KDM5A (3) [16] | Array Heatmap signal, KDM5B (1) [17] | Array Heatmap signal, KDM5B (3) [18] | Array Heatmap signal, KDM7A [19] | Array Heatmap signal, MLL5 [20] | also measured
1 | H3R17me1: H3 1-20 [Peptide H3R17me1] | 0.4567 | 0.4823 | 0.345 | 0.598 | 0.834 | 0.5588 | 0.721 | 0.7016 | 0.5598 | 0.6036 | 0.4855 | 0.4637 | 0.3567 | 0.4745 | 0.4728 | 0.5587 | 0.6928 | 0.5296 | 0.3476 | 0.5956 | Array Heatmap signal, MORC3 (CW) [21]: 0.4904; Array Heatmap signal, PHF13 [22]: 0.6124; Array Heatmap signal, PHF21A [23]: 0.4738; Array Heatmap signal, PHF23 [24]: 0.5635; Array Heatmap signal, PHF2 [25]: 0.5204; Array Heatmap signal, PHF8 [26]: 0.3543; Array Heatmap signal, PHRF1 (RP) [27]: 0.8251; Array Heatmap signal, RAG2 [28]: 0.268; Array Heatmap signal, SP140L [29]: 0.359; Array Heatmap signal, TAF3 [30]: 0.2696; Array Heatmap signal, TRIM66 (PB) [31]: 0.643
2 | H3R17me2a + K18ac (1-25): H3 1-25 | 0.3677 | 0.3556 | 0.2769 | 0.4858 | 0.615 | 0.4057 | 0.5785 | 0.608 | 0.4981 | 0.5776 | 0.4176 | 0.3381 | 0.251 | 0.324 | 0.3724 | 0.5578 | 0.6531 | 0.4124 | 0.2298 | 0.4712 | Array Heatmap signal, MORC3 (CW) [21]: 0.4929; Array Heatmap signal, PHF13 [22]: 0.4521; Array Heatmap signal, PHF21A [23]: 0.3605; Array Heatmap signal, PHF23 [24]: 0.4823; Array Heatmap signal, PHF2 [25]: 0.4874; Array Heatmap signal, PHF8 [26]: 0.2767; Array Heatmap signal, PHRF1 (RP) [27]: 0.7492; Array Heatmap signal, RAG2 [28]: 0.2079; Array Heatmap signal, SP140L [29]: 0.2916; Array Heatmap signal, TAF3 [30]: 0.2141; Array Heatmap signal, TRIM66 (PB) [31]: 0.6221

From publication PMC6979384, “Characterization of the plant homeodomain (PHD) reader family for their histone tail interactions” (Epigenetics & Chromatin, 2020)
